Assay results taken from patent publication US20230123334A1, “AMINO LIPID COMPOUND, PREPARATION METHOD THEREFOR, AND APPLICATION THEREOF” (SHENZHEN SHENXIN BIOTECHNOLOGY CO., LTD., priority 2020, published 2023).

Assays:
HEK293 cells [1] = experiment: Preliminary screening as DNA vectors, GFP transfection of HEK293 cells; type: cell-based; settings: HEK293 cells; lipid/DOPE liposome with 75 ng plasmid DNA (psin-EGFP-IRES-Puro); number of cells expressing GFP divided by total number of nuclei (Hoechst)
Outline: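 Lipid + DOPE liposomes (NaOAc, pH 5.6) complexed w/ 75 ng psin-EGFP-IRES-Puro, 30 min RT; added to 3-5×10^4 HEK293/well, 37° C. Hoechst 0.2 μg/mL at 20-24 h, imaged after further 20-24 h. Efficiency = GFP+ cells / total nuclei.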

HEK293 cells [2] = experiment: Preliminary screening as mRNA vectors, EGFP mRNA transfection of HEK293 cells; type: cell-based; settings: HEK293 cells, 96-well plates, EGFP mRNA 50 ng per well; percentage of GFP fluorescent cells relative to total number of cells (Hoechst)
Outline: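 Each well of HEK293 cells received 50 ng of EGFP mRNA. Efficiency was expressed as percent GFP-expressing cells over Hoechst-defined total cell number.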

SMILES	Absolute DNA transfection efficiency in HEK293 cells (HEK293 cells [1]) [%]	Absolute mRNA transfection efficiency in HEK293 cells (HEK293 cells [2]) [%]
CCCCCCCCCCCNc1nc(NCCCCCCCC)nc(NCCCN(C)C)n1 [Compound N8N11D6]	0.3	0.1
CCCCCCCCCCCNc1nc(NCCCCCCCC)nc(NCCN(CC)CC)n1 [Compound N8N11D7]	0.0	0.0
CCCCCCCCCCCNc1nc(NCCCCCCCC)nc(NCCCN2CCOCC2)n1 [Compound N8N11D8]	0.0	0.1
CCCCCCCCCCCNc1nc(NCCCCCCCC)nc(NCCCN2CCN(C)CC2)n1 [Compound N8N11D9]	0.0	0.0
CCCCCCCCCCCNc1nc(NCCCCCCCC)nc(NCC2CCN(C)CC2)n1 [Compound N8N11D10]	0.3	0.2
CCCCCCCCCCCCNc1nc(NCCCCCCCC)nc(NCCN(C)C)n1 [Compound N8N12D1]	0.6	0.5
CCCCCCCCCCCCNc1nc(NCCCCCCCC)nc(NCCN2CCOCC2)n1 [Compound N8N12D2]	0.0	0.0
CCCCCCCCCCCCNc1nc(NCCCCCCCC)nc(NCCN2CCCC2)n1 [Compound N8N12D3]	2.4	0.5
CCCCCCCCCCCCNc1nc(NCCCCCCCC)nc(NCCN2CCCCC2)n1 [Compound N8N12D4]	0.0	0.0
CCCCCCCCCCCCNc1nc(NCCCCCCCC)nc(NCCN2CCN(C)CC2)n1 [Compound N8N12D5]	0.6	0.9
CCCCCCCCCCCCNc1nc(NCCCCCCCC)nc(NCCCN(C)C)n1 [Compound N8N12D6]	0.4	0.1
CCCCCCCCCCCCNc1nc(NCCCCCCCC)nc(NCCN(CC)CC)n1 [Compound N8N12D7]	0.0	0.0
CCCCCCCCCCCCNc1nc(NCCCCCCCC)nc(NCCCN2CCOCC2)n1 [Compound N8N12D8]	0.0	0.0
CCCCCCCCCCCCNc1nc(NCCCCCCCC)nc(NCCCN2CCN(C)CC2)n1 [Compound N8N12D9]	0.0	0.0
CCCCCCCCCCCCNc1nc(NCCCCCCCC)nc(NCC2CCN(C)CC2)n1 [Compound N8N12D10]	0.7	2.3
CCCCCCCCCCCCCNc1nc(NCCCCCCCC)nc(NCCN(C)C)n1 [Compound N8N13D1]	2.2	0.0
CCCCCCCCCCCCCNc1nc(NCCCCCCCC)nc(NCCN2CCOCC2)n1 [Compound N8N13D2]	0.0	0.1
CCCCCCCCCCCCCNc1nc(NCCCCCCCC)nc(NCCN2CCCC2)n1 [Compound N8N13D3]	0.9	2.7
CCCCCCCCCCCCCNc1nc(NCCCCCCCC)nc(NCCN2CCCCC2)n1 [Compound N8N13D4]	0.7	0.2
CCCCCCCCCCCCCNc1nc(NCCCCCCCC)nc(NCCN2CCN(C)CC2)n1 [Compound N8N13D5]	0.0	0.0
CCCCCCCCCCCCCNc1nc(NCCCCCCCC)nc(NCCCN(C)C)n1 [Compound N8N13D6]	0.0	0.0
CCCCCCCCCCCCCNc1nc(NCCCCCCCC)nc(NCCN(CC)CC)n1 [Compound N8N13D7]	0.0	0.0
CCCCCCCCCCCCCNc1nc(NCCCCCCCC)nc(NCCCN2CCOCC2)n1 [Compound N8N13D8]	0.0	0.2
CCCCCCCCCCCCCNc1nc(NCCCCCCCC)nc(NCCCN2CCN(C)CC2)n1 [Compound N8N13D9]	1.0	0.0
CCCCCCCCCCCCCNc1nc(NCCCCCCCC)nc(NCC2CCN(C)CC2)n1 [Compound N8N13D10]	2.1	1.9
